Source: paper PMC10502144, “Anti-methicillin-resistant Staphylococcus aureus activity and safety evaluation of 14-O-[(5-ethoxycarbonyl-4,6-dimethylpyrimidine-2-yl) thioacetyl] mutilin (EDT)” (Scientific Reports, 2023)
Like-named read-outs stand apart in the source and are kept apart here.

Assays:
CYP3A4 = test: CYP450 inhibition in liver microsomes, probe substrate; format: biochemical; conditions: CYP3A4, rat liver microsomes
Procedure: (§1) Inhibition effects of EDT on cytochrome P450 were evaluated with rat liver microsomes in vitro[43]. Briefly, 12.8 mg EDT was dissolved in methanol and stored at 4 °C as reserve solution. A variety of specific probe substrate (1 μL), EDT solution (1 μL), incubation mixture (193 μL) in which contained glucose-6-phosphate, glucose-6-phosphate dehydrogenase, potassium phosphate buffer, magnesium chloride buffer and PBS buffer, were added into 5 μL liver microsomes to start the reaction at 37 °C. The final concentration of EDT in each group was 0.1, 1, 5, 10, 50, 100 μM. After 30 min, the reaction was terminated by adding the same volume of pre-cooled acetonitrile into the incubation system. After centrifugation for 10 min (8000×g at 4 °C), 10 μL supernatant was removed to analyze the metabolites of specific probe substrate by HPLC. The effects of EDT on CYP450 subtypes were evaluated using formula as follow: (1 − Cn/C0) × 100%, where Cn was substrate metabolite of different concentration of EDT, and C0 was metabolite of blank group.

CYP2E1 = molecular target: T1, CYP2E1 (Rattus norvegicus, UniProt P05182); test: as above; format: biochemical; conditions: 30 min
T1 construct: from tissue; host or cells: rat liver microsomes
Procedure: as §1

CYP2A6 = test: as above; format: biochemical; conditions: CYP2A6, rat liver microsomes
Procedure: as §1

CYP2C19 = test: as above; format: biochemical; conditions: CYP2C19, rat liver microsomes
Procedure: as §1

CYP2C9 = test: as above; format: biochemical; conditions: CYP2C9, rat liver microsomes
Procedure: as §1

CYP1A2 = molecular target: T2, CYP1A2 (Rattus norvegicus, UniProt P04799); test: as above; format: biochemical; conditions: 30 min
T2 construct: from tissue; host or cells: rat liver microsomes
T2 sequence (P04799 1-513): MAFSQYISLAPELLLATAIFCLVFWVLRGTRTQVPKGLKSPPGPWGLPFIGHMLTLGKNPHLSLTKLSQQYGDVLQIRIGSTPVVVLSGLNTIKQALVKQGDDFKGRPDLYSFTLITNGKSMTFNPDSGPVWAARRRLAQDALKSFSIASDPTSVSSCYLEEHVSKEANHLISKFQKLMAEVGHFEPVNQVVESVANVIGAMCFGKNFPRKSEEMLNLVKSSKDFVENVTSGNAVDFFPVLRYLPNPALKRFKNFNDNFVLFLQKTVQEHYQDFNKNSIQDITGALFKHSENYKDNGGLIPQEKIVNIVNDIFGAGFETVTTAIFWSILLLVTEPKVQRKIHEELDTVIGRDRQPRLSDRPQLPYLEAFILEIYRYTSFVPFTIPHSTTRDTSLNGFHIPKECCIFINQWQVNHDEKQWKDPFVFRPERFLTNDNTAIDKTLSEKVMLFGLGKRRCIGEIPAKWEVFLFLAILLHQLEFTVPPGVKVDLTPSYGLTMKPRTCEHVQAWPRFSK
Procedure: as §1

CYP2D6 = test: as above; format: biochemical; conditions: CYP2D6, rat liver microsomes
Procedure: as §1

[1] = test system: Salmonella Typhimurium TA102; test: Ames test, TA102
Procedure: (§2) Before the test, Salmonella Typhimurium (S. Typhimurium) TA97a, TA98, TA100, TA102, TA1535 and Escherichia coli WP2uvrA pKM101 (pKM101) were first checked for their genetic integrity, including biotin dependence, rfa marker (crystal violet), biotin, histidine dependence and presence of the plasmid pKM101 (ampicillin resistance) or pAQ1 (tetracycline resistance). […] The maximum concentration of EDT was also screened using a preliminary experiment.
(§3) DMSO (0.1 mL) was directly incorporated into 1.9 mL melted top agar as the vehicle control. […] Each strain (0.1 mL, 6–7 log10 CFU/mL) was added into 2 mL of top agar in which comprised 0.5 mL S9 (10%), serial concentrations of EDT (2000, 400, 80, 16 and 3.2 μg/plate), DMSO or control chemicals for testing with the S9. For testing without S9, 0.5 mL phosphate buffer saline (PBS, pH 7.4) replaced the S9 mix. Then, the obtained top agar was melted, poured onto the surface of […] and swirled to distribute the top agar to all surfaces of medium, followed by incubation at 37 °C for 48 h. The resultant colonies were counted manually as the number of revertant colonies per plate. The experiments were performed in triplicate and the results were expressed as the average ± SD.

[2] = test system: Salmonella Typhimurium TA1535
Procedure: as §2, §3

[3] = test system: Salmonella Typhimurium TA97a; test: Ames test, TA97a
Procedure: as §2, §3

[4] = test system: Escherichia coli WP2uvrA pKM101; test: Ames test, pKM101
Procedure: as §2, §3

T1 sequence (P05182 whole entry): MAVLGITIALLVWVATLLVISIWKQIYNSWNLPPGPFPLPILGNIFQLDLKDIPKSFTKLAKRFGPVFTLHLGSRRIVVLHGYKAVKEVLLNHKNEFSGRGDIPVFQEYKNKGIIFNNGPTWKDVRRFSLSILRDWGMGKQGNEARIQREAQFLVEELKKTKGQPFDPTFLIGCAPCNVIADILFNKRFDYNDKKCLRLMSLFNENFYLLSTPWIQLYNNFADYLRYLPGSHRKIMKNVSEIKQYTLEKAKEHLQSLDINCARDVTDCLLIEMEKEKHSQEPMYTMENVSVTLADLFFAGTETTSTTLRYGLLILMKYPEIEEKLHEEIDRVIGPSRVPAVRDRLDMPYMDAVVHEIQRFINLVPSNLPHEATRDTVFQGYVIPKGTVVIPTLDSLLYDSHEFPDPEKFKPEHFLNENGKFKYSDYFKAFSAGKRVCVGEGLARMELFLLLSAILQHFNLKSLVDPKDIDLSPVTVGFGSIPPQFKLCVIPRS

Work on `C=CC1(C)CC(OC(=O)CSc2nc(C)c(C(=O)OCC)c(C)n2)C2(C)C(C)CCC3(CCC(=O)C32)C(C)C1O` (centres unmarked) [EDT, 14-O-[(5-ethoxycarbonyl-4,6-dimethylpyrimidine-2-yl)thioacetyl] mutilin] yielded an IC50 at 30 min (CYP3A4) of 9.25 µM, an IC50 (CYP2E1) of 88.5 µM and an IC50 at 30 min (CYP2A6) greater than 100 µM. The IC50 at 30 min (CYP2C19) was greater than 100 µM, the IC50 at 30 min (CYP2C9) was greater than 100 µM and the IC50 (CYP1A2) was greater than 100 µM. For the same compound, the IC50 at 30 min (CYP2D6) was greater than 100 µM, the “number of revertant colonies per plate” value ([1]; TA102, 3.2 μg/plate, +S9) was 214.33 ± 14.67 and the “number of revertant colonies per plate” value ([1]; TA102, 3.2 μg/plate, −S9) was 208.00 ± 15.00. For the same compound, the “number of revertant colonies per plate” value ([1]; TA102, 16 μg/plate, +S9) was 218.00 ± 9.00, the “number of revertant colonies per plate” value ([1]; TA102, 16 μg/plate, −S9) was 205.00 ± 11.00 and the “number of revertant colonies per plate” value ([1]; TA102, 80 μg/plate, +S9) was 223.67 ± 17.33. For the same compound, the “number of revertant colonies per plate” value ([1]; TA102, 80 μg/plate, −S9) was 209.33 ± 13.67, the “number of revertant colonies per plate” value ([1]; TA102, 400 μg/plate, +S9) was 219.67 ± 18.33 and the “number of revertant colonies per plate” value ([1]; TA102, 400 μg/plate, −S9) was 211.00 ± 14.00. For the same compound, the “number of revertant colonies per plate” value ([1]; TA102, 2000 μg/plate, +S9) was 236.33 ± 19.67, the “number of revertant colonies per plate” value ([1]; TA102, 2000 μg/plate, −S9) was 228.00 ± 16.00 and the “number of revertant colonies per plate” value ([2]; TA1535, 3.2 μg/plate, +S9) was 21.00 ± 4.00. For the same compound, the “number of revertant colonies per plate” value ([2]; TA1535, 3.2 μg/plate, −S9) was 19.67 ± 1.33, the “number of revertant colonies per plate” value ([2]; TA1535, 16 μg/plate, +S9) was 27.00 ± 2.00 and the “number of revertant colonies per plate” value ([2]; TA1535, 16 μg/plate, −S9) was 23.33 ± 1.67. For the same compound, the “number of revertant colonies per plate” value ([2]; TA1535, 80 μg/plate, +S9) was 25.00 ± 4.00, the “number of revertant colonies per plate” value ([2]; TA1535, 80 μg/plate, −S9) was 23.33 ± 2.67 and the “number of revertant colonies per plate” value ([2]; TA1535, 400 μg/plate, +S9) was 26.00 ± 3.00. The “number of revertant colonies per plate” value ([2]; TA1535, 400 μg/plate, −S9) was 23.33 ± 2.67, the “number of revertant colonies per plate” value ([2]; TA1535, 2000 μg/plate, +S9) was 19.33 ± 3.67 and the “number of revertant colonies per plate” value ([2]; TA1535, 2000 μg/plate, −S9) was 17.67 ± 2.33. The “number of revertant colonies per plate” value ([3]; 3.2 μg/plate, +S9) was 57.67 ± 4.33, the “number of revertant colonies per plate” value ([3]; 3.2 μg/plate, −S9) was 52.00 ± 3.00 and the “number of revertant colonies per plate” value ([3]; 16 μg/plate, +S9) was 46.00 ± 4.00. The “number of revertant colonies per plate” value ([3]; 16 μg/plate, −S9) was 44.33 ± 5.67, the “number of revertant colonies per plate” value ([3]; 80 μg/plate, +S9) was 50.33 ± 3.67 and the “number of revertant colonies per plate” value ([3]; 80 μg/plate, −S9) was 53.33 ± 5.67. For the same compound, the “number of revertant colonies per plate” value ([3]; 400 μg/plate, +S9) was 54.33 ± 4.67, the “number of revertant colonies per plate” value ([3]; 400 μg/plate, −S9) was 56.00 ± 3.00 and the “number of revertant colonies per plate” value ([3]; 2000 μg/plate, +S9) was 44.00 ± 5.00. For the same compound, the “number of revertant colonies per plate” value ([3]; 2000 μg/plate, −S9) was 52.00 ± 6.00, the “number of revertant colonies per plate” value ([4]; pKM101, 3.2 μg/plate, +S9) was 50.33 ± 2.67 and the “number of revertant colonies per plate” value ([4]; pKM101, 3.2 μg/plate, −S9) was 42.00 ± 3.00. The “number of revertant colonies per plate” value ([4]; pKM101, 16 μg/plate, +S9) was 54.00 ± 4.00, the “number of revertant colonies per plate” value ([4]; pKM101, 16 μg/plate, −S9) was 46.00 ± 5.00 and the “number of revertant colonies per plate” value ([4]; pKM101, 80 μg/plate, +S9) was 44.00 ± 4.00. The “number of revertant colonies per plate” value ([4]; pKM101, 80 μg/plate, −S9) was 41.33 ± 3.67, the “number of revertant colonies per plate” value ([4]; pKM101, 400 μg/plate, +S9) was 53.00 ± 5.00 and the “number of revertant colonies per plate” value ([4]; pKM101, 400 μg/plate, −S9) was 51.33 ± 3.67. The “number of revertant colonies per plate” value ([4]; pKM101, 2000 μg/plate, +S9) was 50.33 ± 3.67 and the “number of revertant colonies per plate” value ([4]; pKM101, 2000 μg/plate, −S9) was 47.00 ± 4.00.
